“Also recorded” adds a separate entry of the source.
Experiments:
Assay type in all cases: cell-based, human
[1] = Resazurin cytotoxicity assay in HK-2 cells; conditions: human, HK-2 cells; 72 h incubation; Mean ± Standard deviation, n = 3
Description: (§1) For the MTT assay, the medium was then removed, the dried crystals were resuspended in 60 μL of Dimethyl sulfoxide (DMSO), and the absorbance was read at 570 nm. For the resazurin assay, the fluorescence intensity was read using a PolarStar Omega plate reader (BMG Labtech; Mornington VIC, Australia) at excitation/emission 560/590 nm. All assays were performed at least three times. […] La Jolla, CA). Both MTT and resazurin assays were performed three times, with two technical replicates in each assay.

[2] = Resazurin cytotoxicity assay in hRPTECs; conditions: human, hRPTECs (passage 2); 72 h incubation; Mean ± Standard deviation, n = 3
Description: as §1

[3] = tested on: KIM-1 mRNA; assay: KIM-1 mRNA qRT-PCR in hRPTECs; parameters: key to Upregulation of KIM-1 hRPTECs R: +: statistically significant increase; −: no significant increase
Description: (§2) HK-2 cells (ATCC CRL-2190; Manassas, VA) were maintained in DMEM/F12 (Life Technologies; Sydney, NSW, Australia) supplemented with 5 μg/mL insulin, 5 μg/mL transferrin, 5 ng/mL sodium selenite (ITS; Roche; […] (passage 2) and culture kits were purchased from Lonza. […] were maintained in Renal Epithelial Cell BulletKitTM (CC-3190, Lonza) at 37°C and 5% CO2 atmosphere. Cells were passaged to 96-well plates with a density of 4000 cells/well. After 24 h culture, compounds with different concentration series were added into each well and incubated for 4, 24, 48, and 72 h. HK-2 and […] were treated with compounds for 4, 24, 48, and 72 h, then the cells were lysed and the RNA reverse transcribed with the TaqMan® Gene Expression Cells-to-CTTM Kit (Life Technologies) according to the manufacturer's instructions. […] Hs00273334_m1), Lcn2 (NGAL; Hs01008571_m1), and Csf1 (M-CSF; Hs00174164_m1). All probes span an exon-exon junction. The real-time quantitative reverse transcription PCR (qRT-PCR) was performed in a 10 μl final reaction mixture using a ViiA 7TM system (Applied Biosystems®, Sydney, NSW, Australia) based on the following thermo cycling conditions: 10 min at 95°C for one cycle, 15 sec at 95°C, 60 sec at 60°C for 40 cycles. The ViiA 7TM software was used for data analysis with Hprt1 expression used for normalization. All assays were performed at least three times, with at least two technical replicates in each assay.

[4] = tested on: NGAL; assay: NGAL protein ELISA in HK-2 cells; parameters: key: +: statistically significant increase; −: no significant increase; conditions: protein levels in culture medium; 72 h time point
Description: (§3) HK-2 cells (ATCC CRL-2190; Manassas, VA) were maintained in DMEM/F12 (Life Technologies; Sydney, NSW, Australia) supplemented with 5 μg/mL insulin, 5 μg/mL transferrin, 5 ng/mL sodium selenite (ITS; Roche; […] (passage 2) and culture kits were purchased from Lonza. […] were maintained in Renal Epithelial Cell BulletKitTM (CC-3190, Lonza) at 37°C and 5% CO2 atmosphere. Cells were passaged to 96-well plates with a density of 4000 cells/well. After 24 h culture, compounds with different concentration series were added into each well and incubated for 4, 24, 48, and 72 h. KIM-1 (DY1750), NGAL (DY1757), and M-CSF (DY216) Duo-Set® ELISA kits were purchased from R&D systems (Minneapolis, MN). Sandwich-ELISA experiments were conducted following the manufacturer's instructions with slight modifications. A 96-well microplate (MaxiSorp®, Nunc, Thermo Scientific, NSW, Australia) was coated with 100 μL of capture antibodies (diluted 1:200 in PBS) and incubated overnight. The plate was then washed twice with washing buffer (0.05% Tween 20 in PBS, pH 7.4) and blocked by adding 300 μL of blocking buffer (1% bovine serum albumin (BSA) in PBS) for 1 h at room temperature. After washing two times with PBS, 100 μL of samples (cell culture media or cell lysates) or standards were then added to each well and incubated for 2 h at room temperature. The biotinylated detection antibodies were then diluted in blocking buffer, added to each well and incubated for 2 h. Horseradish peroxidase (HRP)-labeled streptavidin (100 μL) was then added to bind to detection antibodies. To each well, 100 μL of substrate solution (1:1 mixture of H2O2 and tetramethylbenzidine) was added and incubated for 20 min before reaction termination with 50 μL of stop solution (2N H2SO4). The optical density of each well was measured at 450 nm using a POLARstar Omega plate reader (BMG Labtech). All assays were performed at least three times, with at least two technical replicates in each assay.

[5] = tested on: NGAL mRNA; assay: NGAL mRNA qRT-PCR in HK-2 cells; parameters: key to Upregulation of NGAL HK-2 R: +: statistically significant increase; −: no significant increase; conditions: mRNA levels; 72 h time point
Description: as §2

[6] = tested on: KIM-1; assay: KIM-1 protein ELISA in hRPTECs; parameters: key to Upregulation of KIM-1 hRPTECs P: +: statistically significant increase; −: no significant increase
Description: as §3

[7] = tested on: KIM-1 mRNA; assay: KIM-1 mRNA qRT-PCR in HK-2 cells; parameters: key to Upregulation of KIM-1 HK-2 R: +: statistically significant increase; −: no significant increase
Description: as §2

[8] = MTT cytotoxicity assay in HK-2 cells; conditions: human, HK-2 cells; 72 h incubation; Mean ± Standard deviation, n = 3
Description: as §1

[9] = tested on: NGAL; assay: NGAL protein ELISA in hRPTECs; parameters: key to Upregulation of NGAL hRPTECs P: +: statistically significant increase; −: no significant increase; conditions: for NGAL protein in hRPTEC culture medium: 24 h
Description: as §3

[10] = tested on: KIM-1; assay: KIM-1 protein ELISA in HK-2 cells; parameters: key: +: statistically significant increase; −: no significant increase; conditions: protein levels in culture medium; 72 h time point
Description: as §3

[11] = MTT cytotoxicity assay in hRPTECs; conditions: human, hRPTECs (passage 2); 72 h incubation; Mean ± Standard deviation, n = 3
Description: as §1

[12] = tested on: NGAL mRNA; assay: NGAL mRNA qRT-PCR in hRPTECs; parameters: key to Upregulation of NGAL hRPTECs R: +: statistically significant increase; −: no significant increase
Description: as §2

[13] = tested on: M-CSF mRNA; assay: M-CSF mRNA qRT-PCR in hRPTECs; conditions: 72 h (Fig.4C)
Description: Hs00273334_m1), Lcn2 (NGAL; Hs01008571_m1), and Csf1 (M-CSF; Hs00174164_m1). All probes span an exon-exon junction. The real-time quantitative reverse transcription PCR (qRT-PCR) was performed in a 10 μl final reaction mixture using a ViiA 7TM system (Applied Biosystems®, Sydney, NSW, Australia) based on the following thermo cycling conditions: 10 min at 95°C for one cycle, 15 sec at 95°C, 60 sec at 60°C for 40 cycles. The ViiA 7TM software was used for data analysis with Hprt1 expression used for normalization. All assays were performed at least three times, with at least two technical replicates in each assay.

[14] = protein levels in culture medium, 72 h time point

Upregulation of KIM-1 hRPTECs R ([3]; mRNA levels, 72 h time point) | Upregulation of NGAL HK-2 P [4] | Upregulation of NGAL HK-2 R [5] | KIM-1 protein upregulation in hRPTECs ([6]; 4 h, culture medium (Fig. S5A)) | Upregulation of KIM-1 hRPTECs P [6, 14] | Upregulation of KIM-1 HK-2 R ([7]; mRNA levels, 72 h time point) | NGAL protein in hRPTEC culture medium [9] | Upregulation of NGAL hRPTECs P [9, 14] | Upregulation of KIM-1 HK-2 P [10] | Upregulation of NGAL hRPTECs R ([12]; mRNA levels, 72 h time point) | KIM-1 mRNA transcription level in HK-2 cells ([7]; 72 h, P < 0.005) | Structure (SMILES) | CC50 at 72 h [1] | CC50 at 72 h [2] | CC50 at 72 h [8] | CC50 at 72 h [11] | KIM-1 mRNA in hRPTECs ([3]; 72 h, high dose) | M-CSF mRNA levels in hRPTECs [13] | NGAL mRNA levels in hRPTECs ([12]; 72 h exposure, 1 μmol/L (high dose), P < 0.001)
− | − | − | significant upregulation | + | − | increases | + | − | − |  | C[C@@H]1[C@H](O)[C@@H](C)/C=C/C=C/C=C/C=C/C=C/C=C/C=C/[C@H](O[C@@H]2O[C@H](C)[C@@H](O)[C@H](N)[C@@H]2O)C[C@@H]2O[C@](O)(C[C@@H](O)C[C@@H](O)[C@H](O)CC[C@@H](O)C[C@@H](O)CC(=O)O[C@H]1C)C[C@H](O)[C@H]2C(=O)O [AmB, amphotericin B] | 20 ± 3 µM | 6 ± 1 µM | > 50 µM | > 50 µM |  |  | 
 |  |  |  |  |  | increases |  |  |  | increased | COc1cccc2c1C(=O)c1c(O)c3c(c(O)c1C2=O)C[C@@](O)(C(=O)CO)C[C@@H]3O[C@H]1C[C@H](N)[C@H](O)[C@H](C)O1 [Doxorubicin, doxorubicin] | 2.1 ± 1 µM | 5.2 ± 1 µM | > 50 µM | > 50 µM | stimulation; also recorded: significant induction | significant results; also recorded: significant induction | kept rising; also recorded: significant induction

Reference: publication PMC4492764, “Evaluation of biomarkers for in vitro prediction of drug-induced nephrotoxicity: comparison of HK-2, immortalized human proximal tubule epithelial, and primary cultures of human proximal tubular cells” (Pharmacology Research & Perspectives, 2015)
